# Assay results published in EP1951748B1, “HEPATITIS C VIRUS VARIANTS” (Vertex Pharmaceuticals, Inc., priority 2005, dated 2007).
# “And” between values parts separate entries of the source, which are not always exact repeats. Equal values may be shown once.
# Experiments:
# [1] = test system: HCV replicon cells containing R155T; format: cell-based; settings: for Replicon Assay (resistance of viral variant): R155T, value (spread in brackets)
# Excerpt: (§1) The stable wild-type (mADE) and variant HCV sub-genomic replicon cell lines were generated using the T7 RNA runoff transcripts from the corresponding high efficiency Con1 replicon plasmids.
# (§2) The stable wild-type and variant HCV sub-genomic replicon cell lines were generated using the T7 RNA runoff transcripts from the corresponding high efficiency Con1 replicon plasmids.
# [2] = test system: HCV replicon cells containing R155K; format: cell-based; settings: for Replicon Assay (resistance of viral variant): R155K, value (spread in brackets)
# Excerpt: as §1, §2
# [3] = test system: HCV replicon cells containing R155G; format: cell-based; settings: value (spread in brackets), 2880 min
# [4] = test system: HCV replicon cells containing R155I; format: cell-based; settings: value (spread in brackets), 2880 min
# [5] = test system: HCV replicon cells containing R155M; format: cell-based; settings: for Replicon Assay (resistance of viral variant): R155M, value (spread in brackets)
# Excerpt: as §1, §2
# [6] = test system: Con1-based HCV replicon cells with a different set of adaptive mutations (24-2); settings: determined previously in 24-2 replicon cells (refs 25,41); read-out: 48-h IC50; cited from earlier work
# genotype 1 HCV = test: Phase 1b clinical trial (Study VX04-950-101), plasma HCV RNA; settings: for Δ in VL (Log change in HCV RNA from nadir to Day 14 (end of dosing)): 14 days, one value per subject
# HCV NS3 protease A156T = format: biochemical
# HCV NS3 protease T54A = format: biochemical
# HCV NS3 protease A156S = format: biochemical
# [7] = Hepatitis C virus, 48 h, read-out: Replicon IC50
structure (smiles),measurement,setting,value
CC(C)(C)OC(=O)N[C@H]1CCCCC/C=C\[C@@H]2C[C@@]2(C(=O)NS(=O)(=O)C2CC2)NC(=O)[C@@H]2C[C@@H](OC(=O)N3Cc4cccc(F)c4C3)CN2C1=O [ITMN-191],Replicon Assay (resistance of viral variant),[1]; 2880 min,9.2
same,Replicon Assay (resistance of viral variant),[2]; 2880 min,62.8
same,Replicon Assay (resistance of viral variant),[3],18.7(3.0)
same,Replicon Assay (resistance of viral variant),[4],1.3(0.2)
"NC(=O)c1ncn([C@@H]2O[C@H](CO)[C@@H](O)[C@H]2O)n1 [Ribavirin, 1-beta-D-ribofuranosyl-1H-- 1,2,4-triazole-3-carboxamide]",IC50,[5]; [7],39 ± 5 µM
same,Fold change,"[5]; replicon IC50 of R155M divided by that of the wild-type HCV replicon, 2880 min",0.7 ± 0.1
same,IC50,[1]; [7],32 ± 18 µM
same,Fold change,"[1]; replicon IC50 of R155T divided by that of the wild-type HCV replicon, 2880 min",0.6 ± 0.3
same,IC50,[2]; [7],37 ± 17 µM
same,Fold change,"[2]; replicon IC50 of R155K divided by that of the wild-type HCV replicon, 2880 min",0.6 ± 0.3
CC(C)(C)NC(=O)N[C@H](C(=O)N1C[C@H]2[C@@H]([C@H]1C(=O)NC(CC1CCC1)C(=O)C(N)=O)C2(C)C)C(C)(C)C (stereo partly drawn) [SCH 503034],Replicon Assay (resistance of viral variant),[5]; 2880 min,2.5(0.3)
same,Replicon Assay (resistance of viral variant),[1]; 2880 min,10.2(2.4)
same,Replicon Assay (resistance of viral variant),[2]; 2880 min,6.2(4.9)
same,Replicon Assay (resistance of viral variant),[3],2.8(0.6)
same,Replicon Assay (resistance of viral variant),[4],6.6(2.1)
CCC[C@H](NC(=O)[C@@H]1[C@H]2CCC[C@H]2CN1C(=O)[C@@H](NC(=O)[C@@H](NC(=O)c1cnccn1)C1CCCCC1)C(C)(C)C)C(=O)C(=O)NC1CC1 [VX-950],IC50,HCV NS3 protease A156I,> 50 µM
same,IC50,[6],0.354 µM
same,HCV RNA levels at Day 14,"genotype 1 HCV; 7 patients with continued response, down to undetectable (<10 IU/mL)",≤ 64 IU/mL
same,drop in HCV RNA (initial response),genotype 1 HCV; 13 patients who later rebounded during dosing,greater than 2 log10
same,Δ in VL (Log change in HCV RNA from nadir to Day 14 (end of dosing)),genotype 1 HCV; dose 450 (mg q8h),1.82 and 0.65 and 0.41 and 1.84 and 1.06
same,Δ in VL (Log change in HCV RNA from nadir to Day 14 (end of dosing)),genotype 1 HCV; dose 750 (mg q8h),0.73 and 0.22
same,Δ in VL (Log change in HCV RNA from nadir to Day 14 (end of dosing)),genotype 1 HCV; dose 1250 (mg q12h),3.20 and 1.16 and 1.93 and 0.05 and 0.33 and 0.62 and 0.26
same,IC50,"HCV NS3 protease A156T; A156T, one row per patient-specific genetic background",21.5 µM and 15 µM
COc1ccc2c(O[C@@H]3C[C@H]4C(=O)N[C@]5(C(=O)O)C[C@H]5/C=C\CCCCC[C@H](NC(=O)OC5CCCC5)C(=O)N4C3)cc(-c3csc(NC(C)C)n3)nc2c1 [BILN 2061],Replicon Assay (resistance of viral variant),[5]; 2880 min,42.2(2.1)
same,Replicon Assay (resistance of viral variant),[1]; 2880 min,645 (173)
same,Replicon Assay (resistance of viral variant),[2]; 2880 min,355 (213)
same,Replicon Assay (resistance of viral variant),[3],821 (208)
same,IC50,HCV NS3 protease T54A; T54A,0.01 µM
same,Fold change,"HCV NS3 protease T54A; enzyme IC50 of T54A compared to the genotype 1a HCV-H reference strain, 15 min",2.3
same,Replicon Assay (resistance of viral variant),[4],36.5 (9.5)
same,Fold change,"HCV NS3 protease A156T; enzyme IC50 of A156T compared to the genotype 1a HCV-H reference strain, 15 min",>183
same,IC50,HCV NS3 protease A156S; A156S,0.0074 µM
same,Fold change,"HCV NS3 protease A156S; enzyme IC50 of A156S compared to the genotype 1a HCV-H reference strain, 15 min",1.6
